Drawing on BindingDB's records for doi:10.7270/Q2MP51PC (Pcmd, 2008), this text covers IC50 for 43 molecules.

pIC50: −log10 of the molar value.

The target of this assay is T1, Complement C1s subcomponent (Homo sapiens, UniProt P09871).
T1 sequence (P09871 whole entry): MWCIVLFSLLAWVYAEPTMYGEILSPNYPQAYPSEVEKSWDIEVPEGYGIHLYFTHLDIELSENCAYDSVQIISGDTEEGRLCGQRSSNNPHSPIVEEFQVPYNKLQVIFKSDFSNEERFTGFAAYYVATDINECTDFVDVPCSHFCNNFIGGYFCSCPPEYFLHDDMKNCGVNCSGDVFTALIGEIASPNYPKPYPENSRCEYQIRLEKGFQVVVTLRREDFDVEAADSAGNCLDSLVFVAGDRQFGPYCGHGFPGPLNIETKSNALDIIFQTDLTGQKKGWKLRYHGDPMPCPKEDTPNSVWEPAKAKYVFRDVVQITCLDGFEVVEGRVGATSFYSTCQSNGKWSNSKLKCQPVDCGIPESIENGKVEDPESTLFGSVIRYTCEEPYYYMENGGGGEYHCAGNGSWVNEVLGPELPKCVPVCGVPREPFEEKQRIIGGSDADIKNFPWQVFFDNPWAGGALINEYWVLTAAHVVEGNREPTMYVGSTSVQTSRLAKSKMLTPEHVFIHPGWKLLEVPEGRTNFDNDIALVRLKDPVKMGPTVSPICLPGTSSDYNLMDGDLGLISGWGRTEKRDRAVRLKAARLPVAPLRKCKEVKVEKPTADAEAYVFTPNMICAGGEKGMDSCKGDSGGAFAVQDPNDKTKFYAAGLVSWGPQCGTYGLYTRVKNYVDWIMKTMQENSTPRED
Briefly: C1s inhibitor IC50 values, dose response, biochemical (AID 787).
In turn, `Cc1ccc(NS(=O)(=O)c2cc(C(=O)N3CCOCC3)ccc2C)cc1C` [MLS000066131] had a negative-log IC50 (pIC50) of less than 4.30. `Cc1ccc(S(=O)(=O)n2nc(OC(=O)c3cccs3)cc2N)cc1` gave a pIC50 of less than 4.30.

In turn, `Cc1csc(NC(=O)c2cccc(S(=O)(=O)N3CCCCC3)c2)n1` [MLS000058185] had a pIC50 of less than 4.30. For the molecule `CC1CCCN(C(C(=O)Nc2ccc3c(c2)OCO3)c2ccccc2)C1` (stereo not drawn) [MLS000116117], the negative-log IC50 (pIC50) is less than 4.30.

Regarding `Cc1csc(N(C(=O)c2cccc(S(=O)(=O)N(C)C)c2)c2ccccc2)n1` [3-(dimethylsulfamoyl)-N-(4-methyl-1,3-thiazol-2-yl)-N-phenyl-benzamide], the pIC50 was less than 4.30. For `CSc1nc(-c2ccco2)nn1C(=O)c1cccs1` [[3-(furan-2-yl)-5-methylsulfanyl-1,2,4-triazol-1-yl]-thiophen-2-ylmethanone] the value was 6.06; for `CCCC(=O)n1nc(-c2ccco2)nc1SCc1ccccc1` [1-[3-(2-furanyl)-5-(phenylmethylthio)-1,2,4-triazol-1-yl]-1-butanone], less than 4.30; for `Cc1noc(C)c1COC(=O)c1ccccc1NC(=O)Cc1ccccc1` [(3,5-dimethyl-1,2-oxazol-4-yl)methyl 2-(2-phenylethanoylamino)benzoate], less than 4.30. Molecule `CCOc1cc2[nH]c(=S)n(CC3CCCO3)c(=O)c2cc1OCC` (stereo not drawn) [6,7-diethoxy-3-(2-oxolanylmethyl)-2-sulfanylidene-1H-quinazolin-4-one] showed a pIC50 of less than 4.30. Regarding `CCCS(=O)(=O)N1CCC(C(=O)N2CCN(Cc3ccccc3)CC2)CC1` [(4-benzylpiperazin-1-yl)-(1-propylsulfonylpiperidin-4-yl)methanone], the pIC50 is less than 4.30.

Molecule `COc1ccc(NC(=O)c2[nH]cnc2C(=O)Nc2ccccc2C)cc1` [SMR000020470] showed a pIC50 of less than 4.30. Turning to `O=C(NC1=NCCS1)c1cccc(S(=O)(=O)N2CCCCC2)c1` [3-piperidinosulfonyl-N-(2-thiazolin-2-yl)benzamide], the pIC50 is less than 4.30.

Molecule `Cc1ccc(CCN2C(=O)CCC2(C)C(=O)NC2CCCC2)cc1` (stereo not drawn) [MLS000120119] had a negative-log IC50 (pIC50) of less than 4.30.

Regarding `CC1CNC(=Nc2cccc3ccccc23)S1` (stereo not drawn) [(5-methyl-2-thiazolin-2-yl)-(1-naphthyl)amine], the negative logarithm of the IC50 (pIC50) was less than 4.30.

On to `CCc1c(C(=O)NCc2cnn(C)c2)csc1C` [4-ethyl-5-methyl-N-[(1-methyl-1H-pyrazol-4-yl)methyl]-3-thiophenecarboxamide], for which the pIC50 was less than 4.30. For `CCn1c(=O)c(C(C)=O)nc2ccccc21` [3-acetyl-1-ethyl-2-quinoxalinone] the value was less than 4.30; for `CCc1ccc(-c2cn(-c3nc(C)cc(C)n3)c(=N)o2)cc1` [3-(4,6-dimethyl-2-pyrimidinyl)-5-(4-ethylphenyl)-2-oxazolimine], less than 4.30; for `COc1ccc(S(=O)(=O)n2nc(OC(=O)c3ccco3)cc2N)cc1` [MLS000033887], 4.95.

Regarding `CC(=O)c1cc2c(cc1NC(=O)C1CC=CCC1C(=O)O)OCO2` (stereo not drawn) [6-[(6-acetyl-1,3-benzodioxol-5-yl)carbamoyl]cyclohex-3-ene-1-carboxylic acid], the negative-log IC50 (pIC50) was less than 4.30. On to `O=C(NC1CCCC1)c1cccc(S(=O)(=O)N2CCCCC2)c1` [MLS000065413], for which the negative-log IC50 (pIC50) was less than 4.30. Take `COc1cc(-c2nnc(SCC(=O)c3cc(C)n(CC4CCCO4)c3C)o2)cc(OC)c1OC` (stereo not drawn) [1-[2,5-dimethyl-1-(2-oxolanylmethyl)-3-pyrrolyl]-2-[[5-(3,4,5-trimethoxyphenyl)-1,3,4-oxadiazol-2-yl]thio]ethanone]: the negative logarithm of the IC50 (pIC50) is less than 4.30. In the case of `O=C(O)COCc1nc2ccccc2[nH]1`, the pIC50 was less than 4.30. Take `Oc1cccc(C(=S)N2CCN(Cc3ccccc3)CC2)c1` [(3-hydroxyphenyl)-[4-(phenylmethyl)-1-piperazinyl]methanethione]: the pIC50 is less than 4.30. Next, `Cc1csc(NC(=O)c2ccco2)n1` [MLS000108918]: less than 4.30. The molecule `COc1ccc2cc(CCNC(=O)C(C)C)c(=O)[nH]c2c1` [N-[2-(7-methoxy-2-oxo-1H-quinolin-3-yl)ethyl]-2-methylpropanamide] had a pIC50 of less than 4.30.

Consider `COc1ccc(CNC(=O)c2cc(-c3ccc(OC)c(OC)c3)on2)cc1` [5-(3,4-dimethoxyphenyl)-N-(4-methoxybenzyl)isoxazole-3-carboxamide], for which the pIC50 was less than 4.30.

Turning to `COc1ccc(NC(=O)CSC2CCCCC2)cc1` [2-(cyclohexylthio)-N-(4-methoxyphenyl)acetamide], the pIC50 was less than 4.30. `CCCCC(=O)Nc1ccc(NC(=O)c2cccnc2)cn1` [MLS000068397]: the negative-log IC50 (pIC50) is less than 4.30. On to `COc1ccc(Cl)cc1NC(=O)CCN1CCN(c2ccccc2C)CC1` [MLS000075926], for which the negative-log IC50 (pIC50) is less than 4.30. Take `O=C(Nc1ccccn1)c1cccc(S(=O)(=O)N2CCCCC2)c1` [3-(1-piperidinylsulfonyl)-N-(2-pyridinyl)benzamide]: the pIC50 was less than 4.30. In turn, `Cc1ccc(-c2noc(CN(C(=O)C34CC5CC(CC(C5)C3)C4)C(C)C)n2)cc1` [N-[[3-(4-methylphenyl)-1,2,4-oxadiazol-5-yl]methyl]-N-propan-2-yl-1-adamantanecarboxamide] showed a pIC50 of less than 4.30. As to `CCCc1nc2ccccc2c(=O)n1-c1c(C)n(C)n(-c2ccccc2)c1=O` [3-(1,5-dimethyl-3-oxo-2-phenyl-4-pyrazolyl)-2-propyl-4-quinazolinone], the negative logarithm of the IC50 (pIC50) was less than 4.30. Regarding `COc1ccccc1CNC(=O)C1COc2ccccc2O1` (stereo not drawn) [MLS000110123], the pIC50 is less than 4.30. `COc1ccc(NC(=O)CSC2=NC3=C(C(=O)CCC3)C(c3ccco3)C2C#N)c(OC)c1` (stereo not drawn) [SMR000042323] gave a negative-log IC50 (pIC50) of less than 4.30.

For `c1ccc(Cc2nn3c(COc4ccccc4)nnc3s2)cc1` [3-(phenoxymethyl)-6-(phenylmethyl)-[1,2,4]triazolo[3,4-b][1,3,4]thiadiazole], the pIC50 is less than 4.30. The molecule `CC1(C)C(c2ccccc2)=NC(c2cccnc2)N1O` (stereo not drawn) [3-(1-hydroxy-5,5-dimethyl-4-phenyl-2H-imidazol-2-yl)pyridine] had a negative-log IC50 (pIC50) of less than 4.30.

As to `CCC(=O)Oc1ccc(C(CC)C(CC)c2ccc(OC(=O)CC)cc2)cc1` (stereo not drawn) [HEXESTROL DIPROPIONATE], the pIC50 is less than 4.30. Next, `COc1ccccc1CN1CCCCC1c1cccnc1` (stereo not drawn) [3-(1-o-anisyl-2-piperidyl)pyridine]: less than 4.30; `COc1ccc(C(=O)n2ccc(C)n2)cc1Br` [(3-bromanyl-4-methoxy-phenyl)-(3-methylpyrazol-1-yl)methanone]: less than 4.30; `COC(=O)Cc1n[nH]c2c1C1(C(=O)N(Cc3ccccc3)c3ccccc31)C(C#N)C(=N)O2` (stereo not drawn) [2-[6-amino-5-cyano-2'-oxo-1'-(phenylmethyl)-3-spiro[2H-pyrano[2,3-c]pyrazole-4,3'-indole]yl]acetic acid methyl ester]: less than 4.30. `Cc1cc(NS(=O)(=O)c2ccc(NC(=O)COc3ccccc3C(C)C)cc2)no1` [2-(2-isopropylphenoxy)-N-[4-[(5-methylisoxazol-3-yl)sulfamoyl]phenyl]acetamide] gave a pIC50 of less than 4.30. For `CCOc1ccc2[nH]c3c(N4CCN(c5ccccn5)CC4)ncnc3c2c1` [SMR000044529] the value was less than 4.30; for `C#CCOC(=O)c1ccccc1C(=O)n1nnc2ccccc21`, 5.37.
